The record followed here is US11730717B1, “Melanin-inspired antimicrobial” (The Board of Regents for the Oklahoma Agricultural and …, priority 2020, dated 2023).

One assay relates to S. lactis. Nature of the assay: MIC and MBC values (Table 2). It counts as cell-based. The settings on record: repeated determinations.
Another assay has as its system E. faecalis. Kind of assay: MIC and MBC values (Table 2). The note with it: repeated determinations. It is filed as cell-based, Enterococcus faecalis.
In assay [1] the test system is Gram-positive bacteria, including E. faecalis and clinical isolates MRSA. Kind of assay: MIC summary for Gram-positive bacteria. It is filed as cell-based. Here is the method:
The minimum inhibitory concentrations (MICs) were determined by the broth microdilution method, following the guidelines of the Clinical and Laboratory Standards Institute (CLSI). Two-fold serial dilutions of EIPE-1, DBI, and Arm (starting with 1 mg/mL) were prepared in a 100 μL volume in 96-well microtiter plates. The dilution series included DMSO as a negative control. The bacterial culture […] was normalized to an OD600 of 0.2 and was then added to each well. Plates were incubated with shaking at 220 RPM at 37° C., and the MIC was determined based on the lowest concentration at which no visible growth of the bacterial isolate was observed.
In summary, a new antimicrobial, EIPE-1, was designed and synthesized, inspired by the black-brown pigment, Eumelanin. It was confirmed that the Eumelanin-inspired core DBI maintained its intrinsic antimicrobial activity, and that enhancement could be achieved with the incorporation of bactericidal moieties. […] Bactericidal effects of EIPE-1 against S. aureus were monitored and confirmed using the Live/Dead staining and fluorescent microscopy.

Where “and” joins values, the source holds several entries; their conditions need not be identical. Identical values can stand only once. Like-named read-outs stand apart in the source and are kept apart here.

Consider `COC(=O)c1cc2c(C#Cc3ccc(OCCC[N+](C)(C)C)cc3)c(OC)c(OC)c(C#Cc3ccc(OCCC[N+](C)(C)C)cc3)c2n1C` [EIPE-1, 3,3′-((((5,6-dimethoxy-2-(methoxycarbonyl)-1-methyl-1H-indole-4,7-diyl)bis(ethyne-2,1-diyl))bis(4,1-phenylene))bis(oxy))bis(N,N,N-trimethylpropan-1-aminium) iodide], for which, in the assay with S. lactis, the MBC – broadly, the lowest tested concentration that kills the bacteria rather than only halting them – is 2 µg/mL. Besides, in the assay with S. lactis, the “MBC (μg/mL)” value turned out to be 1.000 µg/mL. Besides, the minimal inhibitory concentration (MIC) (commonly the least concentration at which growth counts as inhibited) in the assay on S. lactis is 1 µg/mL; in the assay with E. faecalis (Enterococcus faecalis, read-out: MIC), 1 µg/mL; with E. faecalis it was 2.000 µg/mL; in assay [1] it was 8 µg/mL to 16 µg/mL and 8.5 µM to 17 µM. Moreover, the “MIC (μg/mL)” value against S. lactis is 0.500 µg/mL.
